# Measurements published in article PMC10313921, “A living ex vivo platform for functional, personalized brain cancer diagnosis” (Cell Reports Medicine, 2023).
# What was measured:
# [1] = test system: MB231Br (breast cancer metastasis to brain); experiment: Drug screening of MB231Br tumor foci on OBSCs; assay type: cell-based, human
# [2] = test system: LN229 (established GBM line); experiment: Drug screening of LN229 tumor foci on OBSCs; assay type: cell-based, human
# In short: (§1)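 Drug effects on tumor foci grown on brain slices are quantified by bioluminescence three days after treatment, relative to untreated foci and day-one fluorescence. Efficacy versus slice toxicity is combined into a weighted drug sensitivity score.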
# [3] = test system: U373WT (wild-type established GBM line); experiment: Drug screening of U373WT tumor foci on OBSCs; assay type: cell-based, human; conditions: U373 WT on OBSCs
# In short: as §1
# [4] = test system: U373KO (RAD18 knockout of U373WT via CRISPR); experiment: Drug screening of U373KO tumor foci on OBSCs; assay type: cell-based, human; conditions: U373 KO on OBSCs
# In short: as §1
# [5] = test system: GBM8 (high-passage patient-derived GBM line); experiment: Drug screening of GBM8 tumor foci on OBSCs; assay type: cell-based, human
# In short: as §1
# [6] = test system: MS21 (low-passage patient-derived GBM line); experiment: Drug screening of MS21 tumor foci on OBSCs; assay type: cell-based, human
# In short: as §1
# [7] = test system: PDIPG (low-passage pediatric patient-derived line); experiment: Drug screening of PDIPG tumor foci on OBSCs; assay type: cell-based, human
# In short: as §1
# [8] = test system: PIS patient tumor tissue (intracranial sarcoma); experiment: Drug screening of uncultured patient tumor tissue PIS on OBSCs; assay type: cell-based, human; conditions: Homo sapiens; PIS on OBSCs; dose required to kill 90% of the tumor
# Method: (§2) Tumor cells were seeded onto OBSCs 2h after slicing as described above. One day after tumor seeding, six concentrations of each drug were diluted in the media underneath each culture insert, or XRad was applied using an X-Rad 320 Precision X-ray machine (n = 4 tumor foci per concentration; n ≥ 24 tumor foci per drug per cell line). Three days after treatment, the bioluminescence of live tumor cells was measured using an AMI optical imager (Spectral Instruments) and dose-response curves were generated. Tumor survival was normalized to day one tumor fluorescence and compared to an untreated control group.
# (§3) To engraft onto OBSCs, the cryopreserved/thawed or fresh brain tumor tissue was filtered through a 100 μm cell strainer. Each 50 mg of tissue was transfected with 1mL mcherry-FLuc Lentivirus at 1.5e7 vg/ml with 1μL polybrene for 4h at 37°C. After incubation, the brain tumor tissue was washed with PBS three times to remove the residual virus and reconstituted in PBS with a final volume of 150 μL. Then the tissue solution was engrafted atop OBSCs at ∼0.5 mg tissue in 3 μL of PBS on each hemisphere of the slice. The OBSC engrafted with patient tumor tissue was incubated at 37°C with 5% CO2 and 95% humidity. The BSM was changed after 24h and subsequently every 3 days. Tumor treatment studies were executed as described above for tumor lines. The viability of the patient tissue was measured by an AMI optical imaging system with the addition of 1.5 mg/mL luciferin underneath the culture insert.
# (§4) Several weighted parameters were factored into an overall drug sensitivity score.
# (§5) For DSS parameters 1–6, therapeutic windows were calculated by comparing OBSC toxicity and tumor response at the doses where tumor kill passed through the DSS parameter (Table S1 and S3). For DSS parameter 7, the therapeutic window was calculated by comparing the slopes through the tumor EC50 and the OBSC tox EC50. For DSS parameter 8, the therapeutic window was calculated by comparing the areas under tumor kill and OBSC tox curves. Normalized therapeutic window ratios for DSS parameters 1–8 within each drug-tumor-OBSC interaction were calculated in the following manner: within each window, values ranged from +1 to −1, where values approaching +1 signify increasing tumor kill relative to normal tissue toxicity, and values approaching −1 indicate agents where tumors remained highly viable while toxicity to the normal OBSC tissue was elevated. DSS parameters 9–11 were determined based on the behavior of the tumor in response to the drug, as defined above.
# (§6) All individually weighed parameters were added together to generate the DSS. Overall DSS from 0 to 100 signify increasing efficacy in tumor kill relative to OBSC toxicity, while scores from 0 to −100 describe scenarios in which tumors thrive more effectively than OBSCs for a given treatment. Dose-response values were calculated via linear interpolation of raw data, not from best-fit curve equations.
# [9] = test system: MG-II patient tumor tissue (WHO grade II meningioma); experiment: Drug screening of uncultured patient tumor tissue MG-II on OBSCs; assay type: cell-based; conditions: Homo sapiens, dose required to kill 90% of the tumor
# Method: as §2, §3, §4, §5, §6
# [10] = area under the dose-response curve, trapezoidal rule
# [11] = dose required to kill 10% of the tumor
# [12] = Homo sapiens, U373 MG, dose required to kill 50% of the tumor
# [13] = Homo sapiens, U373 MG, dose required to kill 90% of the tumor
# [14] = Homo sapiens, U373 MG, dosed day 1, survival via bioluminescence day 4, linear interpolation
structure (smiles),measurement,setting,value
CC[C@]1(O)C[C@H]2CN(CCc3c([nH]c4ccccc34)[C@@](C(=O)OC)(c3cc4c(cc3OC)N(C=O)[C@H]3[C@@](O)(C(=O)OC)[C@H](OC(C)=O)[C@]5(CC)C=CCN6CC[C@]43[C@@H]65)C2)C1 [Vincristine],EC50,"[1]; Homo sapiens, MB231BR on OBSCs, dose required to kill 50% of the tumor",> 10 µM
same,EC90,"[1]; Homo sapiens, MB231BR on OBSCs, dose required to kill 90% of the tumor",> 10 µM
same,IC50,"[1]; Homo sapiens, MB231Br on OBSCs, dosed day 1, survival via bioluminescence day 4, linear interpolation",> 10 µM
same,Killing at highest dose,[1]; MB231BR on OBSCs,7.00E-02 fraction of tumor population killed
same,AUC,"[1]; MB231BR on OBSCs, area under the dose-response curve, trapezoidal rule",1.02E+01
same,Slope,"[1]; MB231BR on OBSCs, slope through the EC50",-1.89E-02
same,Killing at highest dose,[2],4.10E-01 fraction of tumor population killed
same,EC50,"[2]; Homo sapiens, LN-229, dose required to kill 50% of the tumor",> 10 µM
same,EC90,"[2]; Homo sapiens, LN-229, dose required to kill 90% of the tumor",> 10 µM
same,IC50,"[2]; Homo sapiens, LN-229, dosed day 1, survival via bioluminescence day 4, linear interpolation",> 10 µM
same,AUC,[2]; [10],6.37E+00
same,EC10,[2]; [11],0.00667 µM
same,EC25,[2]; dose required to kill 25% of the tumor,0.418 µM
same,Slope,[2]; slope through the EC50,-8.89E-03
same,EC50,[3]; [12],> 10 µM
same,EC90,[3]; [13],> 10 µM
same,IC50,[3]; [14],> 10 µM
same,Killing at highest dose,[3],-6.60E-01 fraction of tumor population killed
same,AUC,[3]; [10],1.36E+01
same,EC10,[3]; [11],0.82 µM
same,Slope,[3]; slope through the EC50,5.78E-02
same,EC50,[4]; [12],> 10 µM
same,EC90,[4]; [13],> 10 µM
same,IC50,[4]; [14],> 10 µM
same,Killing at highest dose,[4],-7.40E-01 fraction of tumor population killed
same,AUC,[4]; [10],1.89E+01
same,Killing at highest dose,[5]; GBM8 on OBSCs,1.00E+00 fraction of tumor population killed
same,AUC,"[5]; GBM8 on OBSCs, area under the dose-response curve, trapezoidal rule",2.38E-01
same,EC10,"[5]; GBM8 on OBSCs, dose required to kill 10% of the tumor",0.00435 µM
same,EC25,"[5]; GBM8 on OBSCs, dose required to kill 25% of the tumor",0.0129 µM
same,EC75,"[5]; GBM8 on OBSCs, dose required to kill 75% of the tumor",0.0843 µM
same,Slope,"[5]; GBM8 on OBSCs, slope through the EC50",-7.00E+00
same,EC90,[5]; Homo sapiens,0.26 µM
same,EC50,"[5]; Homo sapiens, GBM8 on OBSCs, dose required to kill 50% of the tumor, read-out: EC50",0.0486 µM
same,IC50,"[5]; Homo sapiens, GBM8 on OBSCs, dosed day 1, survival via bioluminescence day 4, linear interpolation, read-out: IC50",0.05 µM
same,EC90,[6]; Homo sapiens,> 10 µM
same,EC50,"[6]; Homo sapiens, MS21 on OBSCs, dose required to kill 50% of the tumor, read-out: EC50",4.6 µM
same,IC50,"[6]; Homo sapiens, MS21 on OBSCs, dosed day 1, survival via bioluminescence day 4, linear interpolation, read-out: IC50",4.6 µM
same,Killing at highest dose,[6]; MS21 on OBSCs,5.30E-01 fraction of tumor population killed
same,AUC,"[6]; MS21 on OBSCs, area under the dose-response curve, trapezoidal rule",5.22E+00
same,EC10,"[6]; MS21 on OBSCs, dose required to kill 10% of the tumor",0.00526 µM
same,EC25,"[6]; MS21 on OBSCs, dose required to kill 25% of the tumor",0.172 µM
same,Slope,"[6]; MS21 on OBSCs, slope through the EC50",-5.56E-03
same,EC90,[7]; Homo sapiens,> 10 µM
same,EC50,"[7]; Homo sapiens, PDIPG on OBSCs, dose required to kill 50% of the tumor, read-out: EC50",> 10 µM
same,IC50,"[7]; Homo sapiens, PDIPG on OBSCs, dosed day 1, survival via bioluminescence day 4, linear interpolation, read-out: IC50",> 10 µM
same,Killing at highest dose,[7]; PDIPG on OBSCs,4.86E-01 fraction of tumor population killed
same,AUC,"[7]; PDIPG on OBSCs, area under the dose-response curve, trapezoidal rule",6.36E+00
same,EC10,"[7]; PDIPG on OBSCs, dose required to kill 10% of the tumor",0.242 µM
same,EC25,"[7]; PDIPG on OBSCs, dose required to kill 25% of the tumor",0.406 µM
same,Slope,"[7]; PDIPG on OBSCs, slope through the EC50",-2.32E-02
same,EC90,[8],> 10 µM
same,EC90,[9],> 10 µM
